# Measured values taken from ChEMBL document CHEMBL4371054, “Dual inhibition of Kif15 by oxindole and quinazolinedione chemical probes” (Bioorg Med Chem Lett, 2019).
# The source made the active and inactive calls. The calls are words filed in the database; no cut-off is given here.
# Assays:
# [1] = molecular target: T1, Kinesin-like protein KIF15 (Homo sapiens) (UniProt Q9NS87); assay: Reversible inhibition of recombinant His6-tagged Kif15 (N700 residues) (unknown origin) expressed in HeLa cells assessed as reduction in Alexa-594 labelled microtubule gliding at 10 uM treated for 1 min followed by compound washout and measured every 2 secs for 1 min by epifluorescence microscopic analysis; assay type: cell-based
# T1 sequence (whole entry): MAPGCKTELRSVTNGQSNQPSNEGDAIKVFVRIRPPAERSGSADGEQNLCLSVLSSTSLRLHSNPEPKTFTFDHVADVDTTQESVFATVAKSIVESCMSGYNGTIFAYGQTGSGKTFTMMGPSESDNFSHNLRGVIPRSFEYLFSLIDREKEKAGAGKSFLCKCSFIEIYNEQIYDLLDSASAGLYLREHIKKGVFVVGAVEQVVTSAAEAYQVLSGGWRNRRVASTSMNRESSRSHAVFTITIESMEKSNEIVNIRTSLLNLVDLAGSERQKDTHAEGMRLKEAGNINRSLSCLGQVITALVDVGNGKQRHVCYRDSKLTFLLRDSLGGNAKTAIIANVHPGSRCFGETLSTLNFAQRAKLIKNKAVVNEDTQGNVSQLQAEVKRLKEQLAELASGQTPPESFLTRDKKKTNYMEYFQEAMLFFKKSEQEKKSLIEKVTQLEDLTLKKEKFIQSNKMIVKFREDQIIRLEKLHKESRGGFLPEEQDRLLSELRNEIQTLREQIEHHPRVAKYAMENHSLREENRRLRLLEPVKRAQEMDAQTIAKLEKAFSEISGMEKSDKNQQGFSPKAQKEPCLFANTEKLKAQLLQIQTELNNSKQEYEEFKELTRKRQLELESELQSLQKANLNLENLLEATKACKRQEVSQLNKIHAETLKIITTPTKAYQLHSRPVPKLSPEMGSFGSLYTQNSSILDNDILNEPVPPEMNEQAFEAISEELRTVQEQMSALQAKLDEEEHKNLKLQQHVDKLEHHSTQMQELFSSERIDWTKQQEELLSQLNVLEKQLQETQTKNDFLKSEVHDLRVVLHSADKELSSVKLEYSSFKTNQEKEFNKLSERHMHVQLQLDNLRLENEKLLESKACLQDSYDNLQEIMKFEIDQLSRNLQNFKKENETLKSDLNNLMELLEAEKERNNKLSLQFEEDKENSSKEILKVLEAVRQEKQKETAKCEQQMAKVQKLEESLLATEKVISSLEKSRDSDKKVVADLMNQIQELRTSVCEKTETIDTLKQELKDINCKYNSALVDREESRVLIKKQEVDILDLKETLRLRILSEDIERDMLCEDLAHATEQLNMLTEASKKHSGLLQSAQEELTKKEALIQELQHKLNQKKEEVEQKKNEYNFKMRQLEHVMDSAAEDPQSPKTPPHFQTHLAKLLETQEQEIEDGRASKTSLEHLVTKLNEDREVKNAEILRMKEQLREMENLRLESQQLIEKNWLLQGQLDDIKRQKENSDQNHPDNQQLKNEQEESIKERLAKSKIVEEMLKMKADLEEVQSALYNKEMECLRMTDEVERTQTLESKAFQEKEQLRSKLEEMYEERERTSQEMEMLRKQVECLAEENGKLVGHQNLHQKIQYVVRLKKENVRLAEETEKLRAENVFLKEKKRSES
# [2] = molecular target: T2, Kinesin-like protein KIF11 (Homo sapiens) (UniProt P52732); assay: Inhibition of Eg5 (unknown origin) assessed as reduction in Alexa-594 labelled microtubule gliding at 30 uM measured every 2 secs for 20 secs by epifluorescence microscopic analysis relative to control
# T2 sequence (whole entry): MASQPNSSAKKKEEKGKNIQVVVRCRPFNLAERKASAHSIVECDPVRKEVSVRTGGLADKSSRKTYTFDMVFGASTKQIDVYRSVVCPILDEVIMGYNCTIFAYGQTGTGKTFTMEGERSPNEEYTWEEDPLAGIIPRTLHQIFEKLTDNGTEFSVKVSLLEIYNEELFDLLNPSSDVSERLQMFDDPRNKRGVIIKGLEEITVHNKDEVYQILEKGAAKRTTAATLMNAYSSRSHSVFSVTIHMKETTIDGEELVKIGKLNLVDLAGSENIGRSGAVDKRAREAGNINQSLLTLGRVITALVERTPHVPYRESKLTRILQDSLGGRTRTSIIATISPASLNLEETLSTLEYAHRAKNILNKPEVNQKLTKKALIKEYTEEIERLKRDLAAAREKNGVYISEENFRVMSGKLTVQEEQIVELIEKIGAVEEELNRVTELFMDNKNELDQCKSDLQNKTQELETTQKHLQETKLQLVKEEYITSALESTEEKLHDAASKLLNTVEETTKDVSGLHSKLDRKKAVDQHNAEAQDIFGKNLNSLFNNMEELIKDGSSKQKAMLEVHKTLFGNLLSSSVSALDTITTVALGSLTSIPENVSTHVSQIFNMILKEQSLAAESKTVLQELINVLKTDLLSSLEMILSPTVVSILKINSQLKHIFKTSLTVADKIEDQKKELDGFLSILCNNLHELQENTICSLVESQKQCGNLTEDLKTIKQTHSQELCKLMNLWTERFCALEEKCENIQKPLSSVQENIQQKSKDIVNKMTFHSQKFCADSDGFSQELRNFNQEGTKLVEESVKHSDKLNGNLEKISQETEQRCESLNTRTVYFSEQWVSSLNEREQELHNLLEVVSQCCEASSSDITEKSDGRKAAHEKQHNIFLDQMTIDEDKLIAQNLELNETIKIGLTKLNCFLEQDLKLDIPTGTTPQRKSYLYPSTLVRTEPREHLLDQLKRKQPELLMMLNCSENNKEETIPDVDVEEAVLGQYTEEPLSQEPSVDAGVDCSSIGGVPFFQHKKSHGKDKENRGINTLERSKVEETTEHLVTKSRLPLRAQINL
# [3] = molecular target: T1, Kinesin-like protein KIF15 (Homo sapiens); assay: Inhibition of Kif15 in TP53-deficient human RPE1 cells assessed as cells with bipolar pre-anaphase microtubule structure at 25 uM after 24 hrs by Hoechst 33342 staining based immunofluorescence microscopic analysis (reference value: 90 to 94%); design: scale not given: the % may be the effect or the level left
structure (smiles),measurement,setting,value
O=C1Nc2ccc(C(=O)c3ccco3)cc2/C1=C/c1cc(Cl)c(O)c(Cl)c1,inhibition,[1],Active
same,inhibition,[2],19.8%
same,Activity,[3],84%
